The source of these data is patent publication US20250248999A1, “BAVDEGALUTAMIDE AND COMBINATIONS THEREOF FOR USE IN TREATING PROSTATE CANCER” (Arvinas Operations, Inc., priority 2022, published 2025).

One data set in a line: clinical. The following applies: human, in vivo.
Data set [1] can be described thus: 28-day toxicology study in rats.
The test system of the next data set is CYP3A4. The data set can be described thus: In vitro CYP3A4 induction. The conditions noted are these: in vitro data.
Data set [2] deals with patient-derived xenograft (PDX) model TM00298. Briefly: Patient-derived xenograft (PDX) model TM00298. Format: in vivo, NSG (NOD scid IL2Ry) mice. The following applies: Compound (I-g) 10 mg/kg/day PO, enzalutamide 20 mg/kg/day PO. Here is the method: The TM00298 PDX was grown in intact (non-castrate) male NSG (NOD scid IL2Ry) mice.
(In xenograft studies the graft and the host belong to different species.)

Data set [3] is described as follows: Phase I dose escalation safety. An excerpt: A traditional 3+3 dose escalation design was implemented. […] Dose increases were dependent upon toxicities.
The subject of data set [4] is human VCaP (Vertebral-Cancer of the Prostate) tumor xenografts. Briefly: 3-stage efficacy study in castrated mice bearing VCaP tumor xenografts. The conditions noted are these: for change in body weight: Stage I treatment period, FIG. 16; for Tumor volume, Day 0 / Tumor volume, Day 43 (Stage I) / Tumor volume, Day 92 (Stage III): mean ± SEM; for Tumor volume, Day 92 (Stage III): abiraterone 100 mg/kg or Compound (I-g) 10 mg/kg once daily for 19 days.

Another data set relates to mCRPC tumor. Briefly: RECIST response by CT scan in mCRPC patient. Format: in vivo, human. The conditions noted are these: Patient 20, 140 mg/day, after 4 cycles.
For data set [5], the system named is patient-derived xenograft (PDX) model TM00298. The conditions noted are these: enzalutamide treatment; cited from earlier work.
Assay in data set [6]: not given
The source holds these as a separate data set.

Where [7] appears, read: Stage I, Compound (I-g) 3 mg/kg, abiraterone 100 mg/kg or combination, oral gavage once daily.
Setting [8] is: Stage III, abiraterone-resistant tumors.
Setting [9] is: Stage III, abiraterone-resistant tumors, abiraterone 100 mg/kg or Compound (I-g) 10 mg/kg once daily, n = 4.

Like-named read-outs stand apart in the source and are kept apart here.

Broadly, the AUC is concentration integrated over time. A high value points to more exposure. What is called AUC(0-t) is the area under the concentration-time curve up to a stated or last time point. Lower therefore signals less exposure. The Cmax is the maximum level reached in the sampled fluid or tissue. As a reminder, the Tmax is the time at which the peak concentration occurs. In general, TGI refers to how far tumour growth fell short of that in controls.

As to `N#Cc1ccc(O[C@H]2CC[C@H](NC(=O)c3ccc(N4CCC(CN5CCN(c6cc7c(cc6F)C(=O)N(C6CCC(=O)NC6=O)C7=O)CC5)CC4)nn3)CC2)cc1Cl` (some centres unmarked) [Compound (I-g)], the gastrointestinal alterations entry (dogs, 3, 10, 30 mg/kg oral once daily, 28 days) is “Gastrointestinal alterations were observed at all dose levels (including vehicle alone)”. Further, the prostate weights entry (male dogs) was “decreased prostate weights”. For the same compound, in the data set “clinical”, the AUC was 9120 ng·h/mL, the AUC(0-t) was 3030 ng·h/mL, the highest level (Cmax) was 451 ng/mL and the Tmax stood at 6 h. The “body weight and food consumption” value in data set [1] (80 mg/kg female rat cohort) was “lost body weight and consumed less food”. In [1] (male high-dose rats, 14-day recovery), the “reversibility of findings (liver hypertrophy, femur physis thickening)” value is reported as “fully reversible”. Further, in data set [1] (male rats), the prostate weights entry is recorded as “decreased prostate weights”. In addition, the tolerability entry in data set [1] (rats, oral once daily 28 days, males 20, 60, 120 mg/kg, females 20, 40, 120 mg/kg) is given as “well tolerated at all doses, with the exception of the 80 mg/kg female cohort”. The CYP3A4 induction entry in the data set on CYP3A4 is listed as “induces CYP3A4”. The “reduction of plasma PSA” value in data set [2] (vs vehicle) is 93%. Moreover, in data set [2] (after 20 days, intact male NSG mice), the TGI is 100%. Further, in data set [3] (35 mg/day cohort (n=3)), the “adverse events at grades 2, 3, or 4” value is given as “no adverse events at grades 2, 3, or 4 were observed” and the dose limiting toxicity entry is reported as “no dose limiting toxicity was observed”. In [3] (70 mg/day cohort (n=4)), the dose limiting toxicity result is “no dose limiting toxicity was observed”; the “grade 2 adverse events” value was “One patient experienced grade 2 adverse events (diarrhea, fatigue, vomiting)”; the “grade 3 adverse events” value was “One patient experienced a grade 3 adverse event (anemia) that was unrelated to the administration of compound (I-g)”. In data set [3] (140 mg/day cohort (n=8)), the dose limiting toxicity result is given as “no dose limiting toxicity was observed” and the “patients with grade 2 adverse events” value is recorded as 50 % of the patients. In addition, in data set [3] (280 mg/day cohort (n=7)), the dose-limiting toxicity entry is “one patient experienced dose-limiting toxicity and renal failure”; the “patients with grade 2 or less adverse events” value came out at 5 patients. In data set [4], the “change in body weight” value was “no significant change in body weight was observed”. In [4] (setting [7]), the “Tumor volume, Day 0” value is 147 ± 8{grave over ( )} mm^3 and the “Tumor volume, Day 43 (Stage I)” value was 231 ± 26 mm^3. Besides, the “TGI (%) vs Abiraterone (Stage III)” value in data set [4] (Stage III, abiraterone-resistant tumors, Compound (I-g) 10 mg/kg once daily for 19 days) is reported as “growth inhibition was observed”. Also, the “Tumor volume, Day 92 (Stage III)” value in [4] (setting [8]) stood at 305 ± 23 mm^3. The “Tumor volume, Day 0” value in data set [4] (setting [9]) is 330 ± 15 mm^3. The “tumor response on CT scan” value with mCRPC tumor was “RECIST response”.

Turning to `CNC(=O)c1ccc(N2C(=S)N(c3ccc(C#N)c(C(F)(F)F)c3)C(=O)C2(C)C)cc1F` [enzalutamide, reference compound], in data set [5], the “PSA reductions, published report (Jin 2017)” value is “modest PSA reductions were observed” and the “TGI, published report (Jin 2017)” value is on record as “no TGI”.

Regarding `C[C@]12CC[C@H](O)CC1=CC[C@@H]1[C@@H]2CC[C@]2(C)C(c3cccnc3)=CC[C@@H]12` [Abiraterone, (3S,8R,9S,10R,13S,14S)-10,13-dimethyl-17-(pyridin-3-yl)-2,3,4,7,8,9,10,11,12,13,14,15-dodecahydro-1H-cyclopenta[a]phenanthren-3-ol, reference compound], the exposure (AUC) in “clinical” (Abiraterone AUC0-tau, mean) worked out at 417 ng·h/mL. The compound further displayed a Cmax in the data set “clinical” (Abiraterone Cmax, mean) of 117 ng/mL. Further, in [6] (1000 mg abiraterone given with 420 mg Compound (I-g), preliminary), the “reduction in the average abiraterone AUC exposure” value is 22%. Moreover, the “drug-drug interaction (DDI)” value in data set [6] (abiraterone with Compound (I-g) vs abiraterone alone) is recorded as “no significant DDI was observed”. The “change in body weight” value in data set [4] is given as “no significant change in body weight was observed”. The “TGI (%) vs vehicle (Stage I)” value in data set [4] (Stage I, Compound (I-g) 3 mg/kg, abiraterone 100 mg/kg or combination, oral gavage once daily, 43 days) is 60%. The “Tumor volume, Day 0” value in data set [4] (setting [7]) is recorded as 135 ± 10 mm^3; in data set [4] (setting [9]), 365 ± 44 mm^3. Besides, the “Tumor volume, Day 43 (Stage I)” value in data set [4] (setting [7]) was found to be 262 ± 39 mm^3. Further, in data set [4] (setting [8]), the “Tumor volume, Day 92 (Stage III)” value is recorded as 467 ± 85 mm^3.
